Test results from article PMC2774768 (Journal of the American Chemical Society, 2009).

Tested on: HeLa cells
Assay: Confocal microscopy of peptide uptake and localization
Assay type: cell-based
Conditions: 1.0 μM peptide, 1 h, serum-free DMEM with 25 mM HEPES pH 7.3, fixed

Uptake of peptide at 4 °C, fixed cells (confocal)	Substance
still able to enter the cells	AcK(5-Fam)AKKSRRC(Ger)VLL [compound 4]
substantial uptake of the peptide	AcK(5-Fam)C(Acm)KKSRRC(Ger)-NH2 [2a]
